Values joined by “and” are separate entries in the source; they are usually repeats but may differ in a detail not shown here. Equal entries are not always repeated.
The compounds below were run against NSP1 (Severe acute respiratory syndrome coronavirus 2, UniProt P0DTD1) (assay: not given). Settings: not given.
With CN1CCN(S(=O)(=O)c2ccc(N3Cc4cc5c(cc4C4(CCCC4)C3)OCCO5)nc2)CC1 [1Ai-3564] the “GFP reporter ratio nsp1/gfp, avg” value was 0.5007, the “GFP reporter ratio nsp1/gfp, rep 1” value was 0.5007 and the “gfp signal, mean of duplicate wells” value was 362.5. The “nsp1 signal, mean of duplicate wells” value was 181.5 and the “ratio (nsp1/gfp)” value was 0.501.

Each compound was assayed against T1, eIF1A without CTT (Homo sapiens, UniProt P47813) (assay: not given). Settings: not given.
T1 construct: His-bdSUMO (cleaved yes); made in house; host or cells: E. coli (BL-21)
T1 sequence (P47813 1-114 limits assumed): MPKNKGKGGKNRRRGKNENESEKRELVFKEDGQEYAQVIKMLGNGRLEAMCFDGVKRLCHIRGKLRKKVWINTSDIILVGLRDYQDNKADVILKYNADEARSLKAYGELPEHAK
Type: binding
For CN1CCN(S(=O)(=O)c2ccc(N3Cc4cc5c(cc4C4(CCCC4)C3)OCCO5)nc2)CC1 [1Ai-3564], the “binding to CTT-truncated eIF1A” value was “compromised”.

Same assay, conditions: 1Ai conc. 0.25 uM; background-corrected, relative to DMSO or lowest 1Ai concentration; replicate columns
For CN1CCN(S(=O)(=O)c2ccc(N3Cc4cc5c(cc4C4(CCCC4)C3)OCCO5)nc2)CC1 [1Ai-3564], the “fluorescence ratio, eIF1A Δ CTT” value was 1.127 and 1.051.

Same assay, conditions: 1Ai conc. 0.5 uM; background-corrected, relative to DMSO or lowest 1Ai concentration; replicate columns
In the case of CN1CCN(S(=O)(=O)c2ccc(N3Cc4cc5c(cc4C4(CCCC4)C3)OCCO5)nc2)CC1 [1Ai-3564], the “fluorescence ratio, eIF1A Δ CTT” value is reported as 1.14 and 1.091.

Same assay, conditions: 1Ai conc. 1 uM; background-corrected, relative to DMSO or lowest 1Ai concentration; replicate columns
In the case of CN1CCN(S(=O)(=O)c2ccc(N3Cc4cc5c(cc4C4(CCCC4)C3)OCCO5)nc2)CC1 [1Ai-3564], the “fluorescence ratio, eIF1A Δ CTT” value is reported as 1.087 and 1.0877.

Same assay, conditions: 1Ai conc. 2 uM; background-corrected, relative to DMSO or lowest 1Ai concentration; replicate columns
In the case of CN1CCN(S(=O)(=O)c2ccc(N3Cc4cc5c(cc4C4(CCCC4)C3)OCCO5)nc2)CC1 [1Ai-3564], the “fluorescence ratio, eIF1A Δ CTT” value is reported as 1.109 and 1.056.

Same assay, conditions: 1Ai conc. 4 uM; background-corrected, relative to DMSO or lowest 1Ai concentration; replicate columns
CN1CCN(S(=O)(=O)c2ccc(N3Cc4cc5c(cc4C4(CCCC4)C3)OCCO5)nc2)CC1 [1Ai-3564] was tested, and the “fluorescence ratio, eIF1A Δ CTT” value was 1.011 and 1.035.

Same assay, conditions: 1Ai conc. 8 uM; background-corrected, relative to DMSO or lowest 1Ai concentration; replicate columns
For CN1CCN(S(=O)(=O)c2ccc(N3Cc4cc5c(cc4C4(CCCC4)C3)OCCO5)nc2)CC1 [1Ai-3564], the “fluorescence ratio, eIF1A Δ CTT” value was 0.8478 and 0.8594.

Same assay, conditions: 1Ai conc. 16 uM; background-corrected, relative to DMSO or lowest 1Ai concentration; replicate columns
For CN1CCN(S(=O)(=O)c2ccc(N3Cc4cc5c(cc4C4(CCCC4)C3)OCCO5)nc2)CC1 [1Ai-3564], the “fluorescence ratio, eIF1A Δ CTT” value was 0.8634 and 0.8337.

Same assay, conditions: 1Ai conc. 32 uM; background-corrected, relative to DMSO or lowest 1Ai concentration; replicate columns
In the case of CN1CCN(S(=O)(=O)c2ccc(N3Cc4cc5c(cc4C4(CCCC4)C3)OCCO5)nc2)CC1 [1Ai-3564], the “fluorescence ratio, eIF1A Δ CTT” value is reported as 0.9829 and 0.8523.

Same assay, conditions: 1Ai conc. 64 uM; background-corrected, relative to DMSO or lowest 1Ai concentration; replicate columns
CN1CCN(S(=O)(=O)c2ccc(N3Cc4cc5c(cc4C4(CCCC4)C3)OCCO5)nc2)CC1 [1Ai-3564] was tested, and the “fluorescence ratio, eIF1A Δ CTT” value was 1.0625 and 1.083.

Same assay, conditions: 1Ai conc. 256 uM; background-corrected, relative to DMSO or lowest 1Ai concentration; replicate columns
CN1CCN(S(=O)(=O)c2ccc(N3Cc4cc5c(cc4C4(CCCC4)C3)OCCO5)nc2)CC1 [1Ai-3564] was tested, and the “fluorescence ratio, eIF1A Δ CTT” value was 1.108 and 1.021.

Same assay, conditions: eIF1A without CTT
For CN1CCN(S(=O)(=O)c2ccc(N3Cc4cc5c(cc4C4(CCCC4)C3)OCCO5)nc2)CC1 [1Ai-3564], the “CTT truncation IC50” value was “No binding”.

Same assay, conditions: summary table; fluorescence binding assay
CN1CCN(S(=O)(=O)c2ccc(N3Cc4cc5c(cc4C4(CCCC4)C3)OCCO5)nc2)CC1 [1Ai-3564] was tested, and the “IC50 concentration (µM), CTT truncation” value was “No binding”.

What follows are compounds tested against T2, eIF1A-RPS10 interaction (Homo sapiens, UniProt P46783+P47813) (assay: Split-Renilla luciferase eIF1A-RPS10 interaction screen, dose-response). Settings: summary table; read-out: IC50 concentration (µM), IC50 screen.
T2 construct: made in house; host or cells: E. coli BL21 (PRSFduet); unpurified lysate supernatant
T2 sequence (P47813 whole entry, one chain of several): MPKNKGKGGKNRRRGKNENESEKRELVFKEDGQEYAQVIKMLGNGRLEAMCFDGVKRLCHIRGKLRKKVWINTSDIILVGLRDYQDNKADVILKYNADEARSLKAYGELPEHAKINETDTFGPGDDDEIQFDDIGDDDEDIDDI
Type: biochemical
Outline: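 Reconstituted Renilla luciferase activity reports eIF1A-RPS10 binding; loss indicates disruption by compound. Recombinant fusions (eIF1A C-terminus to N-RL; RPS10-ΔN-Renilla) expressed in E. coli BL21, used as sonicated supernatants in Tris/KCl/EDTA buffer, with unfused split-RL halves as controls.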
With CN1CCN(S(=O)(=O)c2ccc(N3Cc4cc5c(cc4C4(CCCC4)C3)OCCO5)nc2)CC1 [1Ai-3564] the IC50 was 15 µM.

What follows are compounds tested against T3, eIF1A without NTT (Homo sapiens, UniProt P47813) (assay: Fluorescence binding assay with NTT-truncated eIF1A). Settings: 1Ai conc. 0.25 uM; background-corrected, relative to DMSO or lowest 1Ai concentration; replicate columns.
T3 construct: His-bdSUMO (cleaved yes); made in house; host or cells: E. coli (BL-21)
T3 sequence (P47813 31-144 limits assumed): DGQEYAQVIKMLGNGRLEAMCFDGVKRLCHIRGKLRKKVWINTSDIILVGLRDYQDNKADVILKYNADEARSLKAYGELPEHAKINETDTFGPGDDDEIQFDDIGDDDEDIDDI
In the case of CN1CCN(S(=O)(=O)c2ccc(N3Cc4cc5c(cc4C4(CCCC4)C3)OCCO5)nc2)CC1 [1Ai-3564], the “fluorescence ratio, eIF1A Δ NTT” value is reported as 1.

Same assay, conditions: 1Ai conc. 0.5 uM; background-corrected, relative to DMSO or lowest 1Ai concentration; replicate columns
With CN1CCN(S(=O)(=O)c2ccc(N3Cc4cc5c(cc4C4(CCCC4)C3)OCCO5)nc2)CC1 [1Ai-3564] the “fluorescence ratio, eIF1A Δ NTT” value was 1.007.

Same assay, conditions: 1Ai conc. 1 uM; background-corrected, relative to DMSO or lowest 1Ai concentration; replicate columns
In the case of CN1CCN(S(=O)(=O)c2ccc(N3Cc4cc5c(cc4C4(CCCC4)C3)OCCO5)nc2)CC1 [1Ai-3564], the “fluorescence ratio, eIF1A Δ NTT” value is reported as 0.9932.

Same assay, conditions: 1Ai conc. 2 uM; background-corrected, relative to DMSO or lowest 1Ai concentration; replicate columns
With CN1CCN(S(=O)(=O)c2ccc(N3Cc4cc5c(cc4C4(CCCC4)C3)OCCO5)nc2)CC1 [1Ai-3564] the “fluorescence ratio, eIF1A Δ NTT” value was 1.2.

Same assay, conditions: 1Ai conc. 4 uM; background-corrected, relative to DMSO or lowest 1Ai concentration; replicate columns
In the case of CN1CCN(S(=O)(=O)c2ccc(N3Cc4cc5c(cc4C4(CCCC4)C3)OCCO5)nc2)CC1 [1Ai-3564], the “fluorescence ratio, eIF1A Δ NTT” value is reported as 1.048.

Same assay, conditions: 1Ai conc. 8 uM; background-corrected, relative to DMSO or lowest 1Ai concentration; replicate columns
CN1CCN(S(=O)(=O)c2ccc(N3Cc4cc5c(cc4C4(CCCC4)C3)OCCO5)nc2)CC1 [1Ai-3564] was tested, and the “fluorescence ratio, eIF1A Δ NTT” value was 1.009.

Same assay, conditions: 1Ai conc. 16 uM; background-corrected, relative to DMSO or lowest 1Ai concentration; replicate columns
For CN1CCN(S(=O)(=O)c2ccc(N3Cc4cc5c(cc4C4(CCCC4)C3)OCCO5)nc2)CC1 [1Ai-3564], the “fluorescence ratio, eIF1A Δ NTT” value was 1.298.

Same assay, conditions: 1Ai conc. 32 uM; background-corrected, relative to DMSO or lowest 1Ai concentration; replicate columns
For CN1CCN(S(=O)(=O)c2ccc(N3Cc4cc5c(cc4C4(CCCC4)C3)OCCO5)nc2)CC1 [1Ai-3564], the “fluorescence ratio, eIF1A Δ NTT” value was 1.4.

Same assay, conditions: 1Ai conc. 64 uM; background-corrected, relative to DMSO or lowest 1Ai concentration; replicate columns
With CN1CCN(S(=O)(=O)c2ccc(N3Cc4cc5c(cc4C4(CCCC4)C3)OCCO5)nc2)CC1 [1Ai-3564] the “fluorescence ratio, eIF1A Δ NTT” value was 1.423.

Same assay, conditions: 1Ai conc. 256 uM; background-corrected, relative to DMSO or lowest 1Ai concentration; replicate columns
For CN1CCN(S(=O)(=O)c2ccc(N3Cc4cc5c(cc4C4(CCCC4)C3)OCCO5)nc2)CC1 [1Ai-3564], the “fluorescence ratio, eIF1A Δ NTT” value was 1.807.

Same assay, conditions: eIF1A Δ NTT; from the titration data; read-out: IC50 (eIF1A Δ NTT titration block)
For CN1CCN(S(=O)(=O)c2ccc(N3Cc4cc5c(cc4C4(CCCC4)C3)OCCO5)nc2)CC1 [1Ai-3564], the IC50 was 43.2 µM.

Same assay, conditions: summary table; fluorescence binding assay; read-out: IC50 concentration (µM), NTT truncation
Compound CN1CCN(S(=O)(=O)c2ccc(N3Cc4cc5c(cc4C4(CCCC4)C3)OCCO5)nc2)CC1 [1Ai-3564] has an IC50 of 43.2 µM.

Reference: PMC12216609, “Inhibitors of eIF1A-ribosome interaction unveil uORF-dependent regulation of translation initiation and antitumor and antiviral effects” (The EMBO Journal, 2025)
